The record followed here is patent EP4008401A1, “COMPOSITION FOR CARTILAGE REGENERATION PROMOTION” (Suntory Holdings Limited, priority 2019, dated 2021).

Where two headings read alike, the source gives them in different places.

This assay deals with human synovial cells. Description: Cartilage pellet culture of human synovial cells (weight of cartilage pellets; differentiation into cartilage cells). Type of assay: cell-based. The settings on record: for activity at 5 µM / activity at 50 µM: Homo sapiens, Synovial cell, 504 h, read-out: Rate of increase (%); for Weight of pellets (g) (Ave): cultured three weeks; for weight of the cartilage pellets as compared to the control: result in words. On the procedure:
Purchased human synovial cells (available from Toyobo Co., Ltd.; HFLS (Normal), cryopreserved cells (adult); Code No. CA40805a) were seeded into a 150 mm culture dish (available from Corning) at a low density of 50 cells/cm^2 and cultured for 14 days.
The human synovial cells were cultured in the following medium. • α-MEM (available from Nacalai Tesque Inc.) • 10% Fetal bovine serum (available from Sigma-Aldrich) Antibiotic-Antimycotic Mixed Stock Solution (available from Nacalai Tesque Inc.)
Proliferated human synovial cells were detached with Accutase (available from Funakoshi Co., Ltd.), and the medium containing 20 × 10^4 cells was placed in a 15 mL tube made of polypropylene, followed by centrifugation at 1000 × rpm for five minutes. The recovered human synovial cells were cultured in a medium containing a test compound shown in Table 1 for three weeks, and the weight of the resultant cartilage pellets was measured (N = 3, each). The medium containing the test compound was replaced once in two or three days. The test compound was dissolved in the medium using dimethyl sulfoxide (DMSO) (available from Nacalai Tesque Inc.; final concentration: 0.1%) to a final concentration of 50 µM. The test compound was taxifolin (available from Sigma-Aldrich) or hesperetin (available from Funakoshi Co., Ltd.).
The cartilage pellets were cultured in the following medium. The control was cultured by adding DMSO without test compounds to the medium described below (final concentration of DMSO: 0.1%).
DMEM high-glucose (available from Thermo Fisher Scientific) 50 µg/mL L-ascorbic acid 2-phosphate sesquimagnesium salt hydrate (available from Sigma-Aldrich) 40 µg/mL L-proline (available from Sigma-Aldrich) 100 µg/mL Sodium pyruvate (available from Sigma-Aldrich) 50 mg/mL ITS + Premix (available from Corning) 10 ng/mL Transforming growth factor β3 (available from Sigma-Aldrich) 100 nM Dexamethasone (available from Sigma-Aldrich) 50 ng/mL Bone morphogenetic protein 2 (BMP-2) (available from Sigma-Aldrich)
In Table 1, the weight of pellets (g) is the weight of the cartilage pellets (average with N of 3), and SE is the standard error of the weight of pellets. […] A significant difference in the rate of increase (%) determined from the weight of the cartilage pellets relative to the control was tested by Student's t-test, with the significance level being 5% or lower. […]
The test of Example 1 was repeated, except that quercetin (available from Nacalai Tesque Inc.), isorhamnetin (available from Funakoshi Co., Ltd.), or eriodictyol (available from Funakoshi Co., Ltd.) was used as a test compound, and the test compound in the medium was adjusted to a final concentration of 5 µM. […] A significant difference test was performed as in Example 1, with the significance level being 5% or lower.
The test of Example 1 was repeated, except that luteolin (available from Funakoshi Co., Ltd.) or morin (available from Nacalai Tesque Inc.) was used as a test compound, and the test compound in the medium was adjusted to a final concentration of 5 µM. […] A significant difference test was performed as in Example 1, with the significance level being 5% or lower and the marginal significance level being 10% or lower. […]
The test of Example 1 was repeated, except that the compounds shown in Table 4 were used as test compounds and tested with N = 1. […] The final concentration of each of the compounds Nos. 1 to 15 in the medium was adjusted to 5 µM. The final concentration of each of the compounds Nos. 16 to 21 in the medium was adjusted to 50 µM.

Setting [1] is: Comparative Example 1, compounds Nos. 1 to 15, 5 µM, weight relative to control taken as 100%, N = 1.
Setting [2] is: Example 3, test compound 5 µM in medium, average of N of 3.
The mark [3] stands for this setting: Example 3, 5 µM, weight of cartilage pellets relative to control taken as 100%, N = 3.
The mark [4] stands for this setting: Comparative Example 1, compounds Nos. 16 to 21, 50 µM, weight relative to control taken as 100%, N = 1.
The mark [5] stands for this setting: Example 2, test compound 5 µM in medium, average with N of 3.
Where [6] appears, read: Example 2, 5 µM, weight of cartilage pellets relative to control taken as 100%, N = 3.
Setting [7] is: Example 1, test compound 50 µM in medium, average with N of 3.
Setting [8] is: Example 1, 50 µM, weight of cartilage pellets relative to control taken as 100%, N = 3.

Regarding `COc1ccc(-c2coc3cc(O)ccc3c2=O)cc1O` [Calycosin], under setting [1], the activity at 5 µM was 95.3%.

Regarding `O=c1cc(-c2ccc(O)c(O)c2)oc2cc(O)cc(O)c12` [Luteolin, luteolin], under setting [2], the “Weight of pellets (g) (Ave)” value came to 3.53 g. Besides, the “weight of the cartilage pellets as compared to the control” value (“weight … compared to the control” below) (Examples 2 and 3, 5 µM) is reported as “increase”. Further, the activity at 5 µM under setting [3] was 128%.

Turning to `C[C@@H]1O[C@@H](O[C@H]2C(=O)c3c(O)cc(O)cc3O[C@@H]2c2ccc(O)c(O)c2)[C@H](O)[C@H](O)[C@H]1O` [Astilbin], the activity at 5 µM under setting [1] amounted to 60.5%.

In the case of `Oc1ccc([C@H]2COc3cc(O)ccc3C2)cc1` [Equol], the activity at 5 µM stood at 81.4%.

On to `O=c1c(-c2ccc(O)c(O)c2)coc2cc(O)ccc12` [7,3',4'-Trihydroxyisoflavone], for which the activity at 5 µM under setting [1] is 95.3%.

On to `Oc1cc(O)c2c(c1)O[C@H](c1ccc(O)c(O)c1)[C@H](O)C2` [Epicatechin], for which the activity at 50 µM under setting [4] is 117%.

As for `COc1cc(-c2oc3cc(O)cc(O)c3c(=O)c2O)ccc1O` [Isorham netin, isorhamnetin], under setting [5], the “Weight of pellets (g) (Ave)” value turned out to be 5.77 g. The “weight … compared to the control” value (Examples 2 and 3, 5 µM) is “significant increase”. Also, the activity at 5 µM under setting [6] was determined as 159%.

`O=C(/C=C/c1ccc(O)cc1)c1ccc(O)cc1O` [Isoliquiritigenin]: the activity at 5 µM turned out to be 82.1%.

In the case of `COc1ccc([C@@H]2CC(=O)c3c(O)cc(O)cc3O2)cc1O` [Hesperetin, hesperetin], the “weight … compared to the control” value (Example 1, 50 µM) is given as “significant increase”. For the same molecule, under setting [7], the “Weight of pellets (g) (Ave)” value is given as 5.50 g. For the same molecule, the activity at 50 µM under setting [8] stood at 139%.

As for `O=c1cc(-c2ccc(O)cc2)oc2cc(O)cc(O)c12` [Apigenin], under setting [1], the activity at 5 µM is 105%.

`O=C(/C=C/c1ccc(O)c(O)c1)c1c(O)cc(O)cc1O` [3,4,2',4',6'-Pentahydroxychalcon]: under setting [1], the activity at 5 µM turned out to be 111%.

As for `O=c1c(O)c(-c2ccc(O)cc2O)oc2cc(O)cc(O)c12` [Morin, morin], under setting [2], the “Weight of pellets (g) (Ave)” value is recorded as 4.00 g. For the same molecule, the “weight … compared to the control” value (Examples 2 and 3, 5 µM) is “significant increase”. Further, the activity at 5 µM under setting [3] was found to be 145%.

In the case of `O=C1c2c(O)cc(O)cc2O[C@H](c2ccc(O)c(O)c2)[C@H]1O` [Taxifolin, taxifolin], the “weight … compared to the control” value (Example 1, 50 µM) was “significant increase”. For the same molecule, under setting [7], the “Weight of pellets (g) (Ave)” value is 5.73 g. In addition, the activity at 50 µM under setting [8] came to 144%.

Take `COc1ccc(-c2coc3cc(O)cc(O)c3c2=O)cc1` [Biochaninn A]: the activity at 5 µM under setting [1] came out at 21.4%.

As to `COc1ccc(-c2coc3cc(O)ccc3c2=O)cc1` [Formononetin], the activity at 5 µM under setting [1] amounted to 100%.

For the molecule `O=c1c(-c2ccc(O)cc2)coc2cc(O)cc(O)c12` [Genistein], the activity at 5 µM under setting [1] stood at 104%.

Regarding `Oc1cc(O)c2c(c1)OC(c1ccc(O)c(O)c1)C(O)C2` (stereo not drawn) [Catechin], the activity at 50 µM was 112%.

As for `Oc1cc(O)c2cc(O)c(-c3ccc(O)c(O)c3)[o+]c2c1` [Cyanidin], the activity at 5 µM under setting [1] was 51.2%.

Take `O=C1C[C@@H](c2ccc(O)c(O)c2)Oc2cc(O)cc(O)c21` [Eriodictyol, eriodictyol]: the “Weight of pellets (g) (Ave)” value under setting [5] turned out to be 4.80 g. Where the note is “Examples 2 and 3, 5 µM”, the “weight … compared to the control” value was “significant increase”. Besides, the activity at 5 µM under setting [6] was found to be 132%.

As to `O=c1c(O)c(-c2ccc(O)cc2)oc2cc(O)cc(O)c12` [Kaempferol], the activity at 50 µM under setting [4] is 95.8%.

As to `Oc1cc(O)c2cc(O)c(-c3cc(O)c(O)c(O)c3)[o+]c2c1` [Delphinidin], the activity at 5 µM under setting [1] was 41.9%.

Take `O=c1cc(-c2ccccc2)oc2cc(O)cc(O)c12` [Chrysin]: the activity at 50 µM under setting [4] was 108%.

On to `O=c1c(O)c(-c2ccc(O)c(O)c2)oc2cc(O)cc(O)c12` [Quercetin, quercetin], for which the “Weight of pellets (g) (Ave)” value under setting [5] amounted to 5.90 g. Further, the “weight … compared to the control” value (Examples 2 and 3, 5 µM) was “significant increase”. Moreover, the activity at 5 µM under setting [6] stood at 162%.

In the case of `O=C1c2c(O)cc(O)cc2OCC1c1ccc(O)cc1` (stereo not drawn) [Dihydrogenistein], the activity at 50 µM under setting [4] is 92.9%.

For `O=C1C[C@@H](c2ccc(O)cc2)Oc2cc(O)cc(O)c21` [Naringenin], under setting [4], the activity at 50 µM is 117%.

As to `O=c1c(O)c(-c2cc(O)c(O)c(O)c2)oc2cc(O)cc(O)c12` [Myricetin], the activity at 5 µM under setting [1] is 69.8%.

With `O=c1c(-c2ccc(O)cc2)coc2cc(O)ccc12` [Daidzein], under setting [1], the activity at 5 µM came to 100%.

In the case of `O=C(/C=C/c1ccc(O)cc1)c1c(O)cc(O)cc1O` [4,2',4',6'-Tetrahydroxychalcon], the activity at 5 µM under setting [1] came to 118%.
